Results from ChEMBL document CHEMBL1139674 (Bioorg Med Chem Lett, 2006).

Legend:
KB [1] = assay: Cytotoxicity against human KB cells; type: cell-based
[2] = biological target: Tyrosinase (Agaricus bisporus); assay: Inhibition of tyrosinase
[3] = Cytotoxicity against human NCI-H187 cells; type: cell-based
[4] = Cytotoxicity against human BC cells; type: cell-based
KB [5] = assay: Cytotoxicity against human KB cells at 20 ug/ml; type: cell-based
[6] = Cytotoxicity against human NCI-H187 cells at 20 ug/ml; type: cell-based
[7] = Cytotoxicity against human BC cells at 20 ug/ml; type: cell-based
Tyrosinase [8] = biological target: T1, Tyrosinase (Agaricus bisporus, UniProt O42713); assay: Inhibition of mushroom tyrosinase at 1.2 uM
T1 sequence (O42713 whole entry): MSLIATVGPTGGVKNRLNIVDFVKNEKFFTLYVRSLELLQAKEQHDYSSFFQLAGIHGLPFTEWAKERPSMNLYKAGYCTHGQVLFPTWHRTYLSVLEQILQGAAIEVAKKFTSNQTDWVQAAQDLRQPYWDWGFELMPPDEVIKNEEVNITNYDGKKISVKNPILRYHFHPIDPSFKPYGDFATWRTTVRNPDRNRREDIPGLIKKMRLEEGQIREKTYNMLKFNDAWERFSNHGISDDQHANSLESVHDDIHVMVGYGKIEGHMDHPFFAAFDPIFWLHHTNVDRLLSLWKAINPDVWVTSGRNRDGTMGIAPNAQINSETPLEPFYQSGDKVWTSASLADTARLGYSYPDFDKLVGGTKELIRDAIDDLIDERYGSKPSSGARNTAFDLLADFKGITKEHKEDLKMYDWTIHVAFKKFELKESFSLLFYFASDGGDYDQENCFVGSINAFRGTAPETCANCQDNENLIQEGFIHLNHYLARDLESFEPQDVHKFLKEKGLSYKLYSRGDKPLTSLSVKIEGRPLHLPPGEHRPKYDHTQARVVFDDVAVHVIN

Tyrosinase [9] = biological target: T1, Tyrosinase; assay: Inhibition of mushroom tyrosinase at 2.4 uM
Tyrosinase [10] = biological target: T1, Tyrosinase; assay: Inhibition of mushroom tyrosinase at 9.2 uM
Tyrosinase [11] = biological target: T1, Tyrosinase; assay: Inhibition of mushroom tyrosinase at 18.4 uM

SMILES	IC50 (KB [1]) [µM]	IC50 [2] [µM]	IC50 [3] [µM]	IC50 [4] [µM]	Activity (KB [5]) [%]	Activity [6] [%]	Activity [7] [%]	other results
COc1cc(O)cc(/C=C/c2ccc(OC)cc2O)c1	16.5	> 100	33.5	13.9	–	–	–	–
COc1cc(O)ccc1/C=C/c1cc(O)cc(O)c1	–	> 100	–	66.6	< 50	< 50	–	–
COc1cc(O)cc(/C=C/c2ccc(O)cc2OC)c1	5.5	> 100	10.9	10.8	–	–	–	–
Oc1cc(O)cc(CCc2ccc(O)cc2O)c1	–	1.6	–	–	< 50	< 50	< 50	Ki (Tyrosinase [8]): 4.8 µM; Ki (Tyrosinase [9]): 5.6 µM
COc1cc(/C=C\c2ccc(OC)cc2OC)cc(OC)c1	0.3	–	0.3	1	–	–	–	–
COc1cc(CCc2ccc(OC)cc2OC)cc(OC)c1	–	> 100	–	–	< 50	< 50	< 50	–
COc1cc(/C=C/c2ccc(OC)cc2OC)cc(OC)c1	8.6	–	8	5.6	–	–	–	–
COc1cccc2c1C(=O)c1c(O)c3c(c(O)c1C2=O)C[C@@](O)(C(=O)CO)C[C@@H]3O[C@H]1C[C@H](N)[C@H](O)[C@H](C)O1 [DOXORUBICIN]	–	–	0.1	0.5	–	–	–	–
Cc1c2ccncc2c(C)c2c1[nH]c1ccccc12 [ELLIPTECINE]	2.4	–	1.9	2.7	–	–	–	–
Oc1cc(O)cc(/C=C/c2ccc(O)cc2O)c1 [OXYRESVERATROL]	–	–	–	–	< 50	< 50	< 50	Ki (Tyrosinase [10]): 22 µM; Ki (Tyrosinase [11]): 28 µM
